# Measurements reported in patent US11904020B2, “Bicyclic peptide ligands specific for TREM2” (Bicycle Tx Limited, priority 2021, dated 2024).
# *1 amine or outer side, *2 acyl side, *3 side chain or, on linkers, in order; H or OH if unused. Where a SMILES comes first, the peptide text is derived from it. Bridges are numbered along the chain shown (N, C = ends). [ ]: non-standard residue; d: D form. TATA = O=C(CC[*:1])N1CN(C(=O)CC[*:2])CN(C(=O)CC[*:3])C1; Bip = N[C@@H](Cc1ccc(-c2ccccc2)cc1)C(=O)O; 1Nal = N[C@@H](Cc1cccc2ccccc12)C(=O)O; 4Pal = N[C@@H](Cc1ccncc1)C(=O)O
# Molecular target: TREM2 extracellular domain (ECD) (residues 19-131, C-terminally biotinylated, deglycosylated or glycosylated) (Homo sapiens, UniProt Q9NZC2)
# Sequence (Q9NZC2 19-131): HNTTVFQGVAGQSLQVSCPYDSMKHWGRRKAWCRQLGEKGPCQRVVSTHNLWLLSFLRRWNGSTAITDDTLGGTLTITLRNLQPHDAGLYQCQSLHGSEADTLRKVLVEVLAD
# Test: biochemical
# Conditions: Human BLI (Kd; nM) (deglycosylated), Table 4A; deglycosylated human TREM2 ECD; steady-state KD, 25° C.
# Method: Bio-layer interferometry was performed on an Octet RED384® system (Sartorius) at 25° C. in a buffer containing 50 mM HEPES (pH 7.5), 150 mM NaCl and 0.1% Tween. TREM2 extracellular domain (ECD) (residues 19-131, C-terminally biotinylated, deglycosylated or glycosylated) was loaded onto Superstreptavidin biosensors (SSA, 18-5070, Sartorius) at 0.0125 mg/ml for 300 s. Bicycle peptides (10 mM in DMSO) were dispensed into 384-Well Tilted-Bottom Plates (18-5076, Sartorius) using an Echo liquid handler giving a final DMSO concentration of 0.125% in all wells including control wells. Association of defined concentrations of bicyclic peptide (0-12.5 μM, 1:2 dilutions for 7 points) was recorded over 120 s followed by dissociation in buffer over 120 s. Reference wells containing no bicycle peptides and reference sensors loaded with an unrelated protein (His-tagged MLLT3a) were subjected to the same assay protocol and double reference subtraction was used for processing to account for non-specific binding. Traces were analysed using Octet Software (Version 11.0). Association and dissociation curves were globally fit and the response at equilibrium (Req) plotted against concentration to obtain steady-state KD values.
# 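Note: Bio-layer interferometry in 50 mM HEPES pH 7.5 with 150 mM NaCl and 0.1% Tween, double-referenced with blank wells and unrelated-protein sensors, equilibrium response fitted versus concentration.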
row,Structure (SMILES),Kd
1,"CC(C)C[C@@H]1NC(=O)[C@H](Cc2ccccc2)NC(=O)[C@H](Cc2ccccc2)NC(=O)[C@@H]2CCCN2C(=O)[C@H](Cc2c[nH]c3ccccc23)NC(=O)[C@H](Cc2ccccc2)NC(=O)[C@@H]2CSCCC(=O)N3CN(CN(C3)C(=O)CCSC[C@@H](C(=O)N[C@@H](C)C(N)=O)NC1=O)C(=O)CCSC[C@H](NC(=O)[C@H](C)N)C(=O)N[C@@H](CO)C(=O)N[C@@H](CCC(=O)O)C(=O)N[C@@H](Cc1ccc(O)cc1)C(=O)N2 [BCY19776, A-(SEQ ID NO: 15)-A] (H-ACSEYCFWPFFLCA-NH2; linker 2-6-13 via TATA)",750 nM
2,"CC(C)[C@@H]1NC(=O)[C@H](C)NC(=O)[C@H](Cc2ccccc2)NC(=O)[C@@H]2CCCN2C(=O)[C@H](Cc2c[nH]c3ccccc23)NC(=O)[C@H](Cc2ccccc2)NC(=O)[C@@H]2CSCCC(=O)N3CN(CN(C3)C(=O)CCSC[C@@H](C(=O)N[C@@H](C)C(N)=O)NC1=O)C(=O)CCSC[C@H](NC(=O)[C@H](C)N)C(=O)N[C@@H]([C@@H](C)O)C(=O)N[C@@H](CC(N)=O)C(=O)N[C@@H](Cc1ccc(O)cc1)C(=O)N2 [BCY19783, A-(SEQ ID NO: 22)-A] (H-ACTNYCFWPFAVCA-NH2; linker 2-6-13 via TATA)",2700 nM
3,"C[C@H](N)C(=O)N[C@H]1CSCCC(=O)N2CN3CN(C2)C(=O)CCSC[C@H](NC(=O)[C@H](Cc2ccc(O)cc2)NC(=O)[C@H](CC(N)=O)NC(=O)[C@H]([C@@H](C)O)NC1=O)C(=O)N[C@@H](Cc1ccccc1)C(=O)N[C@@H](Cc1c[nH]c2ccccc12)C(=O)N1CCC[C@H]1C(=O)N[C@@H](Cc1ccccc1)C(=O)N[C@@H](Cc1c[nH]c2ccccc12)C(=O)N[C@@H](CO)C(=O)N[C@H](C(=O)N[C@@H](C)C(N)=O)CSCCC3=O [BCY19769, A-(SEQ ID NO: 11)-A] (H-ACTNYCFWPFWSCA-NH2; linker 2-6-13 via TATA)",920 nM
4,"C[C@H](N)C(=O)N[C@H]1CSCCC(=O)N2CN3CN(C2)C(=O)CCSC[C@H](NC(=O)[C@H](Cc2ccc(O)cc2)NC(=O)[C@H](CCC(=O)O)NC(=O)[C@H](CO)NC1=O)C(=O)N[C@@H](Cc1ccccc1)C(=O)N[C@@H](Cc1c[nH]c2ccccc12)C(=O)N1CCC[C@H]1C(=O)N[C@@H](Cc1ccccc1)C(=O)N[C@@H](Cc1ccc(O)cc1)C(=O)N[C@@H](CO)C(=O)N[C@H](C(=O)N[C@@H](C)C(N)=O)CSCCC3=O [BCY17669, A-(SEQ ID NO: 2)-A] (H-ACSEYCFWPFYSCA-NH2; linker 2-6-13 via TATA)",1200 nM
5,"CC(=O)N[C@@H](C)C(=O)N[C@H]1CSCCC(=O)N2CN3CN(C2)C(=O)CCSC[C@H](NC(=O)[C@H](Cc2ccc(O)cc2)NC(=O)[C@H](CCC(=O)O)NC(=O)[C@H](CO)NC1=O)C(=O)N[C@@H](Cc1ccccc1)C(=O)N[C@@H](Cc1c[nH]c2ccccc12)C(=O)N1CCC[C@H]1C(=O)N[C@@H](Cc1ccccc1)C(=O)N[C@@H](Cc1ccc(O)cc1)C(=O)N[C@@H](Cc1c[nH]cn1)C(=O)N[C@H](C(=O)N[C@@H](C)C(N)=O)CSCCC3=O [BCY18218, Ac-A-(SEQ ID NO: 1)-A] (Ac-ACSEYCFWPFYHCA-NH2; linker 2-6-13 via TATA)",2000 nM
6,"C[C@H](N)C(=O)N[C@H]1CSCCC(=O)N2CN3CN(C2)C(=O)CCSC[C@H](NC(=O)[C@H](Cc2ccc(O)cc2)NC(=O)[C@H](C)NC(=O)[C@H](CO)NC1=O)C(=O)N[C@@H](Cc1ccccc1)C(=O)N[C@@H](Cc1c[nH]c2ccccc12)C(=O)N1CCC[C@H]1C(=O)N[C@@H](Cc1ccccc1)C(=O)N[C@@H](Cc1ccc(O)cc1)C(=O)N[C@@H](Cc1c[nH]cn1)C(=O)N[C@H](C(=O)N[C@@H](C)C(N)=O)CSCCC3=O [BCY18221, A-(SEQ ID NO: 25)-A] (H-ACSAYCFWPFYHCA-NH2; linker 2-6-13 via TATA)",1800 nM
7,"CC(=O)N[C@H]1CSCCC(=O)N2CN3CN(C2)C(=O)CCSC[C@H](NC(=O)[C@H](Cc2ccc(O)cc2)NC(=O)[C@H](CCC(=O)O)NC(=O)[C@H](CO)NC1=O)C(=O)N[C@@H](Cc1ccccc1)C(=O)N[C@@H](Cc1cccc2ccccc12)C(=O)N1CCC[C@H]1C(=O)N[C@@H](Cc1ccccc1)C(=O)N[C@@H](Cc1ccc(O)cc1)C(=O)N[C@@H](Cc1c[nH]cn1)C(=O)N[C@H](C(N)=O)CSCCC3=O [BCY19669, Ac-(SEQ ID NO: 37)] (Ac-CSEYCF[1Nal]PFYHC-NH2; linker 1-5-12 via TATA)",2000 nM
8,"C[C@H](N)C(=O)N[C@H]1CSCCC(=O)N2CN3CN(C2)C(=O)CCSC[C@H](NC(=O)[C@H](Cc2ccc(O)cc2)NC(=O)[C@H](CC(N)=O)NC(=O)[C@H]([C@@H](C)O)NC1=O)C(=O)N[C@@H](Cc1ccccc1)C(=O)N[C@@H](Cc1c[nH]c2ccccc12)C(=O)N1CCC[C@H]1C(=O)N[C@@H](Cc1ccccc1)C(=O)N[C@@H](CCC(N)=O)C(=O)N[C@@H](CO)C(=O)N[C@H](C(=O)N[C@@H](C)C(N)=O)CSCCC3=O [BCY19780, A-(SEQ ID NO: 19)-A] (H-ACTNYCFWPFQSCA-NH2; linker 2-6-13 via TATA)",2400 nM
9,"C[C@H](N)C(=O)N[C@H]1CSCCC(=O)N2CN3CN(C2)C(=O)CCSC[C@H](NC(=O)[C@H](Cc2ccc(O)cc2)NC(=O)[C@H](CO)NC(=O)[C@H]([C@@H](C)O)NC1=O)C(=O)N[C@@H](Cc1ccccc1)C(=O)N[C@@H](Cc1c[nH]c2ccccc12)C(=O)N1CCC[C@H]1C(=O)N[C@@H](Cc1ccccc1)C(=O)N[C@@H](Cc1ccc(O)cc1)C(=O)N[C@@H](CCC(N)=O)C(=O)N[C@H](C(=O)N[C@@H](C)C(N)=O)CSCCC3=O [BCY19768, A-(SEQ ID NO: 10)-A] (H-ACTSYCFWPFYQCA-NH2; linker 2-6-13 via TATA; N-terminus and C-terminus assumed)",900 nM
10,"C[C@H](N)C(=O)N[C@H]1CSCCC(=O)N2CN3CN(C2)C(=O)CCSC[C@H](NC(=O)[C@H](Cc2ccc(O)cc2)NC(=O)[C@H](Cc2ccc(O)cc2)NC(=O)[C@H](CO)NC1=O)C(=O)N[C@@H](Cc1ccccc1)C(=O)N[C@@H](Cc1c[nH]c2ccccc12)C(=O)N1CCC[C@H]1C(=O)N[C@@H](Cc1ccccc1)C(=O)N[C@@H](CCC(N)=O)C(=O)N[C@@H](CO)C(=O)N[C@H](C(=O)N[C@@H](C)C(N)=O)CSCCC3=O [BCY19766, A-(SEQ ID NO: 8)-A] (H-ACSYYCFWPFQSCA-NH2; linker 2-6-13 via TATA; C-terminus assumed)",1000 nM

# Same assay, conditions: Human BLI (Kd; nM) (deglycosylated), Table 4B; deglycosylated human TREM2 ECD; steady-state KD, 25° C.
row,Structure (SMILES),Kd
1,"CC(=O)N[C@H]1CSCCC(=O)N2CN3CN(C2)C(=O)CCSC[C@H](NC(=O)[C@H](Cc2ccc(O)cc2)NC(=O)[C@H](CCC(=O)O)NC(=O)[C@H](CO)NC1=O)C(=O)N[C@@H](Cc1ccccc1)C(=O)N[C@@H](Cc1c[nH]c2ccccc12)C(=O)N1CCC[C@H]1C(=O)N[C@@H](Cc1ccccc1)C(=O)N[C@@H](Cc1ccc(O)cc1)C(=O)N[C@@H](Cc1ccccc1)C(=O)N[C@H](C(N)=O)CSCCC3=O [BCY20576, Ac-(SEQ ID NO: 102)] (Ac-CSEYCFWPFYFC-NH2; linker 1-5-12 via TATA)",1350 nM
2,"CC(=O)N[C@H]1CSCCC(=O)N2CN3CN(C2)C(=O)CCSC[C@H](NC(=O)[C@H](Cc2ccc(O)cc2)NC(=O)[C@H](CCC(=O)O)NC(=O)[C@H](CO)NC1=O)C(=O)N[C@@H](Cc1cccc2ccccc12)C(=O)N[C@@H](Cc1c[nH]c2ccccc12)C(=O)N1CCC[C@H]1C(=O)N[C@@H](Cc1ccccc1)C(=O)N[C@@H](Cc1ccc(O)cc1)C(=O)N[C@@H](Cc1c[nH]cn1)C(=O)N[C@H](C(N)=O)CSCCC3=O [BCY20054, Ac-(SEQ ID NO: 49)] (Ac-CSEYC[1Nal]WPFYHC-NH2; linker 1-5-12 via TATA)",2540 nM
3,"CC(=O)N[C@H]1CSCCC(=O)N2CN3CN(C2)C(=O)CCSC[C@H](NC(=O)[C@H](Cc2ccc(O)cc2)NC(=O)[C@@H](C)NC(=O)[C@H](CO)NC1=O)C(=O)N[C@@H](Cc1ccccc1)C(=O)N[C@@H](Cc1c[nH]c2ccccc12)C(=O)N1CCC[C@H]1C(=O)N[C@@H](Cc1ccccc1)C(=O)N[C@@H](Cc1ccc(O)cc1)C(=O)N[C@@H](Cc1c[nH]cn1)C(=O)N[C@H](C(N)=O)CSCCC3=O [BCY20087, Ac-(SEQ ID NO: 80)]",18000 nM
4,"CC(=O)N[C@H]1CSCCC(=O)N2CN3CN(C2)C(=O)CCSC[C@H](NC(=O)[C@H](Cc2ccc(O)cc2)NC(=O)[C@H](CCC(=O)O)NC(=O)[C@H](CO)NC1=O)C(=O)N[C@@H](Cc1ccccc1)C(=O)N[C@@H](Cc1c[nH]c2ccccc12)C(=O)N1CCC[C@H]1C(=O)N[C@@H](Cc1ccc(-c2ccccc2)cc1)C(=O)N[C@@H](Cc1ccc(O)cc1)C(=O)N[C@@H](Cc1c[nH]cn1)C(=O)N[C@H](C(N)=O)CSCCC3=O [BCY20075, Ac-(SEQ ID NO: 71)] (Ac-CSEYCFWP[Bip]YHC-NH2; linker 1-5-12 via TATA)",2400 nM
5,"CC(=O)N[C@H]1CSCCC(=O)N2CN3CN(C2)C(=O)CCSC[C@H](NC(=O)[C@H](Cc2ccc(O)cc2)NC(=O)[C@H](CCC(=O)O)NC(=O)[C@H](CO)NC1=O)C(=O)N[C@@H](Cc1ccccc1)C(=O)N[C@@H](Cc1c[nH]c2ccccc12)C(=O)N1CCC[C@H]1C(=O)N[C@@H](Cc1ccccc1)C(=O)N[C@@H](CCC(N)=O)C(=O)N[C@@H](Cc1ccc(O)cc1)C(=O)N[C@H](C(N)=O)CSCCC3=O [BCY20220, Ac-(SEQ ID NO: 23)] (Ac-CSEYCFWPFQYC-NH2; linker 1-5-12 via TATA)",1300 nM
6,"CC(=O)N[C@H]1CSCCC(=O)N2CN3CN(C2)C(=O)CCSC[C@H](NC(=O)[C@H](Cc2ccc(O)cc2)NC(=O)[C@H](CCC(=O)O)NC(=O)[C@H](CO)NC1=O)C(=O)N[C@@H](Cc1ccccc1)C(=O)N[C@@H](Cc1c[nH]c2ccccc12)C(=O)N1CCC[C@H]1C(=O)N[C@@H](Cc1ccncc1)C(=O)N[C@@H](Cc1ccc(O)cc1)C(=O)N[C@@H](Cc1c[nH]cn1)C(=O)N[C@H](C(N)=O)CSCCC3=O [BCY20569, Ac-(SEQ ID NO: 95)] (Ac-CSEYCFWP[4Pal]YHC-NH2; linker 1-5-12 via TATA)",3800 nM

# Same assay, conditions: Human BLI (Kd; nM) glycosylated, Table 4B; glycosylated human TREM2 ECD
row,Structure (SMILES),Kd
1,"CC(=O)N[C@H]1CSCCC(=O)N2CN3CN(C2)C(=O)CCSC[C@H](NC(=O)[C@H](Cc2ccc(O)cc2)NC(=O)[C@H](CCC(=O)O)NC(=O)[C@H](CO)NC1=O)C(=O)N[C@@H](Cc1cccc2ccccc12)C(=O)N[C@@H](Cc1c[nH]c2ccccc12)C(=O)N1CCC[C@H]1C(=O)N[C@@H](Cc1ccccc1)C(=O)N[C@@H](Cc1ccc(O)cc1)C(=O)N[C@@H](Cc1c[nH]cn1)C(=O)N[C@H](C(N)=O)CSCCC3=O [BCY20054, Ac-(SEQ ID NO: 49)] (Ac-CSEYC[1Nal]WPFYHC-NH2; linker 1-5-12 via TATA)",1830 nM
